Source: US20230174484A1, “ANTAGONISTS OF GPR39 PROTEIN” (Oregon Health & Science University, priority 2020, published 2023)
Where a name gives a salt, the structure may show the parent alone.

Molecular target: T1, human GPR39 receptor (Homo sapiens, UniProt O43194)
T1 construct: PC3 Cells, Expressing the Endogenous Human GPR39 Receptor; endogenous in cells; host or cells: PC3 (human prostate adenocarcinoma) cells
T1 sequence (O43194 1-453): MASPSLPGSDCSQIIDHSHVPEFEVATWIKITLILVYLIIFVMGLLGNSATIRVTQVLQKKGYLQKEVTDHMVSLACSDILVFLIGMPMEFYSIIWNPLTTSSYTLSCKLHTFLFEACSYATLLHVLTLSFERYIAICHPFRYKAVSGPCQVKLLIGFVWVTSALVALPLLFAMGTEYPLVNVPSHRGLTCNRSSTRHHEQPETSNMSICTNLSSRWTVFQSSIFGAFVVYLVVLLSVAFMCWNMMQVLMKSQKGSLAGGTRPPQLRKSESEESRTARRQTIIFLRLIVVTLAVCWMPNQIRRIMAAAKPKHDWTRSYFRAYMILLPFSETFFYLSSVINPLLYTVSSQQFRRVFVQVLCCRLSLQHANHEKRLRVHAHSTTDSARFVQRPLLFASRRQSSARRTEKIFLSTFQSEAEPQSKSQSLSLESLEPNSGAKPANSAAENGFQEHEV
Assay: Measurement of intracellular calcium response in PC3 cells (FLIPR), antagonism of the C3 agonist response
Assay type: cell-based
Conditions: functional pKi (modified Cheng-Prusoff), inhibition of the C3 (TC-G 1008) response at EC90, 30 μM ZnCl2, read-out: fpKi activity
Outline: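 Potency was reported as fpKi, converted by modified Cheng-Prusoff from four-parameter IC50 fits against an EC90 C3 agonist challenge. Calcium-6 FLIPR readings used PC3 cells naturally expressing human GPR39, in pH 7.4 HEPES buffer containing 30 μM final ZnCl2. Score bands: +/± <5.2, + 5.2–5.9, ++ 6.0–6.5, +++ 6.6–7.2, ++++ ≥7.3.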

Compound	Ki [µM]
O=C(Nc1ccc(C(=O)N2CCN(c3ccncc3)CC2)c(N2CCCCCC2)c1)C1CC1 [Example 57, N-[3-(azepan-1-yl)-4-(4-pyridin-4-ylpiperazine-1-carbonyl)phenyl]cyclopropanecarboxamide]	1.26 to 6.31
O=C(Nc1ccc(C(=O)N2CCC3(CC2)COC3)c(N2CCC(C(F)(F)F)C2)c1)C1CC1 (single isomer, unassigned) [Example 213b]	0.0631 to 0.251
CN1CCN(C(=O)c2ccc(-c3nnc(C4CC4)[nH]3)cc2N2CCCC2)C(c2ccccc2)C1 (single isomer, unassigned) [Example 151a, (2R or 2S) [4-(5-cyclopropyl-4H-1,2,4-triazol-3-yl)-2-pyrrolidin-1-ylphenyl]-(4-methyl-2-phenylpiperazin-1-yl)methanone]	0.0631 to 0.251
CN1CCN(C(=O)c2ccc(NC(=O)C3CC3)cc2N2CCC3(CCC3)C2)C(c2cccs2)C1 (racemic) [Example 85, N-[3-(6-azaspiro[3.4]octan-6-yl)-4-(4-methyl-2-thiophen-2-ylpiperazine-1-carbonyl)phenyl]Cyclopropanecarboxamide]	≤ 0.0501
CC1CCN(c2cc(NC(=O)C3CC3)ccc2C(=O)N2CCN(C)CC2c2ccccc2)C1 (single isomer, unassigned) [Example 64c, (2S, 3R) or (2R, 3S) or (2R, 3R) or (2S, 3S) N-[4-(4-methyl-2-phenylpiperazine-1-carbonyl)-3-(3-methylpyrrolidin-1-yl)phenyl] cyclopropanecarboxamide]	≤ 0.0501
CCCN1CCN(C(=O)c2ccc(NC(=O)C3CC3)cc2N2CCCCCC2)C(c2ccccc2)C1 (single isomer, unassigned) [Example 73a, N-[3-(azepan-1-yl)-4-(2-phenyl-4-propylpiperazine-1-carbonyl)phenyl]Cyclopropanecarboxamide]	≤ 0.0501
CN1CCN(C(=O)c2ccc(NC(=O)C3CC3)cc2N2CCCC2)C(c2cccc(F)c2)C1 (single isomer, unassigned) [Example 88b, N-[4-[2-(3-fluorophenyl)-4-methylpiperazine-1-carbonyl]-3-pyrrolidin-1-ylphenyl]cyclopropanecarboxamide]	1.26 to 6.31
CN1CCN(C(=O)c2ccc(NC(=O)C3CC3)cc2N2CCC(C(F)(F)F)C2)C(c2ccccc2)C1 (single isomer, unassigned) [Example 199c, (2S, 3R) or (2R, 3S) or (2R, 3R) or (2S, 3S) N-[4-(4-methyl-2-phenylpiperazine-1-carbonyl)-3-[3-(trifluoromethyl)pyrrolidin-1-yl]phenyl]cyclopropanecarboxamide]	0.0631 to 0.251
O=C(Nc1ccc(C(=O)N2CCn3cccc3C2)c(N2CCCCCC2)c1)C1CC1 [Example 39, N-(3-(azepan-1-yl)-4-(1,2,3,4-tetrahydropyrrolo[1,2-a]pyrazine-2-carbonyl)phenyl) cyclopropane carboxamide]	0.0631 to 0.251
O=C(Nc1ccc(C(=O)N2CCc3ccccc3C2)c(N2CCCCCC2)c1)C1CC1 [Example 21, N-(3-(azepan-1-yl)-4-(1,2,3,4-tetrahydroisoquinoline-2-carbonyl)phenyl) cyclopropanecarboxamide]	0.316 to 1
CCCN1CCN(C(=O)c2ccc(NC(=O)C3CC3)cc2N2CCC3(CCC3)C2)CC1 [Example 1, N-(4-(4-propylpiperazine-1-carbonyl)-3-(6-azaspiro[3.4]octan-6-yl)phenyl)cyclopropanecarboxamide]	≤ 0.0501
CC1CCN(c2cc(NC(=O)C3CC3)ccc2C(=O)N2CCC(C(F)(F)F)CC2)C1 (racemic) [Example 63c, N-[3-(3-methylpyrrolidin-1-yl)-4-[4-(trifluoromethyl)piperidine-1-carbonyl]phenyl]cyclopropanecarboxamide]	≤ 0.0501
O=C(Nc1ccc(C(=O)N2CCC3(CC2)COC3)c(N2CCC(C(F)(F)F)C2)c1)C1CC1 (single isomer, unassigned) [Example 213a, N-[4-(2-oxa-7-azaspiro[3.5]nonane-7-carbonyl)-3-[3R or 3S-(trifluoromethyl)pyrrolidin-1yl]phenyl]cyclopropanecarboxamide]	≤ 0.0501
Cc1nnc(-c2ccc(C(=O)N3CCN(C)CC3c3ccccc3)c(N3CCC(C(F)(F)F)C3)c2)[nH]1 (single isomer, unassigned) [Example 177a, (2S, 3R) or (2R, 3S) or (2R, 3R) or (2S, 3S) (4-methyl-2-phenylpiperazin-1-yl)-[4-(5-methyl-4H-1,2,4-triazol-3-yl)-2-[3-(trifluoromethyl)pyrrolidin-1-yl]phenyl]methanone]	0.0631 to 0.251
CCCN1CCN(C(=O)c2ccc(NC(=O)C3CC3)cc2N2CC3CC3C2)CC1 (centres unmarked) [Example 12, N-(3-(3-azabicyclo[3.1.0]hexan-3-yl)-4-(4-propylpiperazine-1-carbonyl)phenyl)cyclopropanecarboxamide]	0.316 to 1
CCOC1CCN(C(=O)c2ccc(NC(=O)C3CC3)cc2N2CCCCCC2)CC1 [Example 48, N-(3-(azepan-1-yl)-4-(4-ethoxypiperidine-1-carbonyl)phenyl)cyclopropanecarboxamide]	0.316 to 1
CN1CCN(C(=O)c2ccc(NC(=O)C3CC3)cc2N2CCC(C(F)(F)F)C2)C(c2ccccc2)C1 (single isomer, unassigned) [Example 199e, (2S, 3R) or (2R, 3S) or (2R, 3R) or (2S, 3S) N-[4-(4-methyl-2-phenylpiperazine-1-carbonyl)-3-[3-(trifluoromethyl)pyrrolidin-1-yl]phenyl]cyclopropanecarboxamide hydrochloride]	≤ 0.0501
CN1CCN(C(=O)c2ccc(NC(=O)C3CC3)cc2N2CCCC2)C(c2ccccc2Cl)C1 (single isomer, unassigned) [Example 170a, (2R or 2S) N-[4-[2-(2-chlorophenyl)-4-methylpiperazine-1-carbonyl]-3-pyrrolidin-1-ylphenyl] cyclopropanecarboxamide]	≤ 0.0501
CN1CCN(C(=O)c2ccc(NC(=O)C3CC3)cc2N2CCC(C(F)(F)F)C2)C(c2ccccc2)C1 (single isomer, unassigned) [Example 199b, (2S, 3R) or (2R, 3S) or (2R, 3R) or (2S, 3S) N-[4-(4-methyl-2-phenylpiperazine-1-carbonyl)-3-[3-(trifluoromethyl)pyrrolidin-1-yl]phenyl]cyclopropanecarboxamide]	0.316 to 1
O=C(Nc1ccc(C(=O)N2CCS(=O)(=O)CC2)c(N2CCCC(F)(F)C2)c1)C1CC1 [Example 191, N-[3-(3,3-difluoropiperidin-1-yl)-4-(1,1-dioxo-1,4-thiazinane-4-carbonyl)phenyl]cyclopropanecarboxamide]	1.26 to 6.31
O=C(Nc1ccc(C(=O)N2CCC(F)(F)CC2)c(N2CCCC2)c1)C1CC1 [Example 59, N-[4-(4,4-difluoropiperidine-1-carbonyl)-3-pyrrolidin-1-ylphenyl]cyclopropanecarboxamide]	0.0631 to 0.251
CC1CC(C)CN(c2cc(NC(=O)C3CC3)ccc2C(=O)N2CCN(C)CC2c2ccccc2)C1 (single isomer, unassigned) [Example 68f, Syn 2R or 2S N-[3-[3,5-dimethylpiperidin-1-yl]-4-(4-methyl-2-phenylpiperazine-1-carbonyl)phenyl]cyclopropanecarboxamide hydrochloride]	≤ 0.0501
CCCN1CCN(C(=O)c2ccc(NC(N)=O)cc2N2CCCCCC2)CC1 [Example 96, [3-(azepan-1-yl)-4-(4-propylpiperazine-1-carbonyl)phenyl]urea]	1.26 to 6.31
